# Experimental data as given in patent US11279683B2, “Thiophene derivatives as antiviral agents” (ENYO PHARMA, priority 2016, dated 2022).
# Test system: H1N1 (influenza A/New Caledonia/20/99)
# Experiment: microbe, parasite or virus in culture
# Format: cell-based
# Details: Influenza A virus, H1N1, A549, 48 h
row,Compound,IC50 [µM]
1,"O=C1CCCC(C(=O)Nc2sc3c(c2C(=O)Nc2ccc(Cl)cc2)CCC3)C1 (stereo not shown) [Compound 53, N-(4-Chlorophenyl)-2-[(3-oxocyclohexanecarbonyl)amino]-5,6-dihydro-4H-cyclopenta[b]thiophene-3-carboxamide]",12.8
2,"Cc1cc(Cl)ccc1NC(=O)c1c(NC(=O)C2CCCCC2C(=O)O)sc2c1CCC2 (stereo not shown) [Compound 7, 2-[[3-[(4-Chloro-2-methyl-phenyl)carbamoyl]-5,6-dihydro-4H-cyclopenta[b]thiophen-2-yl]carbamoyl]cyclohexanecarboxylic acid]",10.1
3,"NS(=O)(=O)N1CCC1C(=O)Nc1sc2c(c1C(=O)Nc1ccc(Cl)cc1)CCC2 (stereo not shown) [Compound 102, N-[3-[(4-chlorophenyl)carbamoyl]-5,6-dihydro-4H-cyclopenta[b]thiophen-2-yl]-1-sulfamoyl-azetidine-2-carboxamide]",20.9
4,"CC(C)(C)c1ccc(NC(=O)c2c(NC(=O)C3CCCCC3C(=O)O)sc3c2CCC3)cc1 (stereo not shown) [Compound 21, 2-[[3-[(4-tert-Butylphenyl)carbamoyl]-5,6-dihydro-4H-cyclopenta[b]thiophen-2-yl]carbamoyl]cyclohexanecarboxylic acid]",4.68
5,"O=C(Nc1ccc(Cl)cc1)c1c(NC(=O)C2C3CCC(O3)C2C(=O)O)sc2c1CCC2 (stereo not shown) [Compound 51, 2-[[3-[(4-Chlorophenyl)carbamoyl]-5,6-dihydro-4H-cyclopenta[b]thiophen-2-yl]carbamoyl]-7-oxabicyclo[2.2.1]heptane-3-carboxylic acid]",29.7
6,"O=C(NC1CCC(F)(F)CC1)c1c(NC(=O)C2CCCCC2C(=O)O)sc2c1CCC2 (stereo not shown) [Compound 18, 2-[[3-[(4,4-Difluorocyclohexyl)carbamoyl]-5,6-dihydro-4H-cyclopenta[b]thiophen-2-yl]carbamoyl]cyclohexanecarboxylic acid]",33
7,"O=C(Nc1ccc2c(c1)OCO2)c1c(NC(=O)C2CCCCC2C(=O)O)sc2c1CCC2 (stereo not shown) [Compound 3, 2-[[3-(1,3-Benzodioxol-5-ylcarbamoyl)-5,6-dihydro-4H-cyclopenta[b]thiophen-2-yl]carbamoyl]cyclohexanecarboxylic acid]",10.3
8,"O=C(Nc1ccc(Cl)cc1)c1c(NC(=O)C2COCCN2)sc2c1CCC2 (stereo not shown) [Compound 103, N-[3-[(4-chlorophenyl)carbamoyl]-5,6-dihydro-4H-cyclopenta[b]thiophen-2-yl]morpholine-3-carboxamide]",24.2
9,"CC(=O)c1cccc(NC(=O)c2c(NC(=O)C3CCCCC3C(=O)O)sc3c2CCC3)c1 (stereo not shown) [Compound 12, 2-[[3-[(3-Acetylphenyl)carbamoyl]-5,6-dihydro-4H-cyclopenta[b]thiophen-2-yl]carbamoyl]cyclohexanecarboxylic acid]",21.2
10,"O=C(CC1CCOCC1)Nc1sc2c(c1C(=O)Nc1ccc(Cl)cc1)CCC2 [Compound 81, N-(4-chlorophenyl)-2-[(2-tetrahydropyran-4-ylacetyl)amino]-5,6-dihydro-4H-cyclopenta[b]thiophene-3-carboxamide]",3.9
11,"O=C(Nc1ccc(Cl)cc1)c1c(NC(=O)C2CCCCC2C(=O)O)sc2c1CCOC2 (stereo not shown) [Compound 37, 2-[[3-[(4-Chlorophenyl)carbamoyl]-5,7-dihydro-4H-thieno[2,3-c]pyran-2-yl]carbamoyl]cyclohexanecarboxylic acid]",43.4
12,"CCc1c(C)sc(NC(=O)C2CCCCC2C(=O)O)c1C(=O)Nc1cccc(Cl)c1 (stereo not shown) [Compound 70, 2-[[3-[(3-Chlorophenyl)carbamoyl]-4-ethyl-5-methyl-2-thienyl]carbamoyl]cyclohexanecarboxylic acid]",14.7
13,"O=C(Nc1ccc(Cl)cc1)c1c(NC(=O)C2CCN2)sc2c1CCC2 (stereo not shown) [Compound 96, N-[3-[(4-chlorophenyl)carbamoyl]-5,6-dihydro-4H-cyclopenta[b]thiophen-2-yl]azetidine-2-carboxamide]",14.1
14,"CS(=O)(=O)N1CCOC(C(=O)Nc2sc3c(c2C(=O)Nc2ccc(Cl)cc2)CCC3)C1 (stereo not shown) [Compound 86, N-[3-[(4-chlorophenyl)carbamoyl]-5,6-dihydro-4H-cyclopenta[b]thiophen-2-yl]-4-methylsulfonyl-morpholine-2-carboxamide]",6.3
15,"O=C(Nc1ccc(C(F)(F)F)cc1)c1c(NC(=O)C2CCCCC2C(=O)O)sc2c1CCC2 (stereo not shown) [Compound 27, 2-[[3-[[4-(Trifluoromethyl)phenyl]carbamoyl]-5,6-dihydro-4H-cyclopenta[b]thiophen-2-yl]carbamoyl]cyclohexanecarboxylic acid]",18.1
16,"NS(=O)(=O)N1CCCC(C(=O)Nc2sc3c(c2C(=O)Nc2ccc(Cl)cc2)CCC3)C1 (stereo not shown) [Compound 83, N-[3-[(4-chlorophenyl)carbamoyl]-5,6-dihydro-4H-cyclopenta[b]thiophen-2-yl]-1-sulfamoyl-piperidine-3-carboxamide]",5.05
17,"Cc1cccc(NC(=O)c2c(NC(=O)C3CC=CCC3C(=O)O)sc3c2CCCC3)c1 (stereo not shown) [Compound 68, 6-[[3-(m-Tolylcarbamoyl)-4,5,6,7-tetrahydrobenzothiophen-2-yl]carbamoyl]cyclohex-3-ene-1-carboxylic acid]",11.7

row,Compound,IC50 [µM]
1,"Cc1cccc(NC(=O)c2c(NC(=O)C3CCCCC3C(=O)O)sc3c2CCCC3)c1 (stereo not shown) [Compound 69, 2-[[3-(m-Tolylcarbamoyl)-4,5,6,7-tetrahydrobenzothiophen-2-yl]carbamoyl]cyclohexanecarboxylic acid]",13.9
2,"NC(=O)C1CCCCC1C(=O)Nc1sc2c(c1C(=O)Nc1ccc(Cl)cc1)CCC2 (stereo not shown) [Compound 55, N2-[3-[(4-Chlorophenyl)carbamoyl]-5,6-dihydro-4H-cyclopenta[b]thiophen-2-yl]cyclohexane-1,2-dicarboxamide]",27
3,"CS(=O)(=O)N1CCCC(C(=O)Nc2sc3c(c2C(=O)Nc2ccc(Cl)cc2)CCC3)C1 (stereo not shown) [Compound 95, N-[3-[(4-chlorophenyl)carbamoyl]-5,6-dihydro-4H-cyclopenta[b]thiophen-2-yl]-1-methylsulfonyl-piperidine-3-carboxamide]",13.7
4,"NC(=O)N1CCCC(C(=O)Nc2sc3c(c2C(=O)Nc2ccc(Cl)cc2)CCC3)C1 (stereo not shown) [Compound 92, N3-[3-[(4-chlorophenyl)carbamoyl]-5,6-dihydro-4H-cyclopenta[b]thiophen-2-yl]piperidine-1,3-dicarboxamide]",11.4
5,"O=C(Nc1ccc(CO)cc1)c1c(NC(=O)C2CCCCC2C(=O)O)sc2c1CCC2 (stereo not shown) [Compound 19, 2-[[3-[[4-(Hydroxymethyl)phenyl]carbamoyl]-5,6-dihydro-4H-cyclopenta[b]thiophen-2-yl]carbamoyl]cyclohexanecarboxylic acid]",30.8
6,"CS(=O)(=O)c1ccc(NC(=O)c2c(NC(=O)C3CCCCC3C(=O)O)sc3c2CCC3)cc1 (stereo not shown) [Compound 31, 2-[[3-[(4-Methylsulfonylphenyl)carbamoyl]-5,6-dihydro-4H-cyclopenta[b]thiophen-2-yl]carbamoyl]cyclohexanecarboxylic acid]",27.3
7,"O=C(Nc1ccc(Cl)cc1)c1c(NC(=O)C2CCCC2C(=O)O)sc2c1CCC2 (stereo not shown) [Compound 46, 2-[[3-[(4-Chlorophenyl)carbamoyl]-5,6-dihydro-4H-cyclopenta[b]thiophen-2-yl]carbamoyl]cyclopentanecarboxylic acid]",17.4
8,"Cc1ccc(NC(=O)c2c(NC(=O)C3CCCCC3C(=O)O)sc3c2CCC3)cc1Cl (stereo not shown) [Compound 14, 2-[[3-[(3-chloro-4-methyl-phenyl)carbamoyl]-5,6-dihydro-4H-cyclopenta[b]thiophen-2-yl]carbamoyl]cyclohexanecarboxylic acid]",4.78
9,"Cc1ccc(NC(=O)c2c(NC(=O)C3CCCCC3C(=O)O)sc3c2CCC3)cc1C (stereo not shown) [Compound 1, 2-[[3-[(3,4-Dimethylphenyl)carbamoyl]-5,6-dihydro-4H-cyclopenta[b]thiophen-2-yl]carbamoyl]cyclohexanecarboxylic acid]",7.78
10,"CS(=O)(=O)N1CCCCC1C(=O)Nc1sc2c(c1C(=O)Nc1ccc(Cl)cc1)CCC2 (stereo not shown) [Compound 100, N-[3-[(4-chlorophenyl)carbamoyl]-5,6-dihydro-4H-cyclopenta[b]thiophen-2-yl]-1-methylsulfonyl-piperidine-2-carboxamide]",16.6
11,"N#Cc1ccc(NC(=O)c2c(NC(=O)C3CCCCC3C(=O)O)sc3c2CCC3)cc1 (stereo not shown) [Compound 28, 2-[[3-[(4-Cyanophenyl)carbamoyl]-5,6-dihydro-4H-cyclopenta[b]thiophen-2-yl]carbamoyl]cyclohexanecarboxylic acid]",15.9
12,"CCc1c(C)sc(NC(=O)C2CCCCC2C(=O)O)c1C(=O)Nc1ccccc1 (stereo not shown) [Compound 73, 2-[[4-Ethyl-5-methyl-3-(phenylcarbamoyl)-2-thienyl]carbamoyl]cyclohexanecarboxylic acid]",24.6
13,"COc1ccc(NC(=O)c2c(NC(=O)C3CCCCC3C(=O)O)sc3c2CCC3)cc1 (stereo not shown) [Compound 76, 2-[[3-[(4-Methoxyphenyl)carbamoyl]-5,6-dihydro-4H-cyclopenta[b]thiophen-2-yl]carbamoyl]cyclohexanecarboxylic acid]",14.1
14,"O=C(Nc1ccc(F)cc1)c1c(NC(=O)C2CCCCC2C(=O)O)sc2c1CCC2 (stereo not shown) [Compound 4, 2-[[3-[(4-Fluorophenyl)carbamoyl]-5,6-dihydro-4H-cyclopenta[b]thiophen-2-yl]carbamoyl]cyclohexanecarboxylic acid]",15
15,"O=C(Nc1ccc(Cl)nc1)c1c(NC(=O)C2CCCCC2C(=O)O)sc2c1CCC2 (stereo not shown) [Compound 2, 2-[[3-[(6-Chloro-3-pyridyl)carbamoyl]-5,6-dihydro-4H-cyclopenta[b]thiophen-2-yl]carbamoyl]cyclohexanecarboxylic acid]",18
16,"CONC(=O)[C@@H]1CCCC[C@@H]1C(=O)Nc1sc2c(c1C(=O)Nc1ccc(Cl)cc1)CCC2 (stereo in doubt) [Compound 88, N1-[3-[(4-chlorophenyl)carbamoyl]-5,6-dihydro-4H-cyclopenta[b]-thiophen-2-yl]-N2-methoxy-cyclohexane-1,2-dicarboxamide]",8.4
17,"CN(C(=O)c1c(NC(=O)C2CCCCC2C(=O)O)sc2c1CCC2)c1ccc(Cl)cc1 (stereo not shown) [Compound 34, 2-[[3-[(4-Chlorophenyl)-methyl-carbamoyl]-5,6-dihydro-4H-cyclopenta[b]thiophen-2-yl]carbamoyl]cyclohexanecarboxylic acid]",30.4
